# Read-outs that look alike come from different tables or passages of the source.
# Tests used:
# [1] = tested on: PANC-1 (human pancreatic carcinoma) cells; assay: Impedance-based viability assay (xCELLigence SP), long treatment; format: cell-based; conditions: 72 h, read-out: cytotoxicity expressed in IC50, PANC-1
# Excerpt: (Gibco®/Invitrogen Corporation, New York, NY, USA).
# Data obtained from each experiment represent mathematical averages.
# [2] = tested on: Panc1 pancreatic cancer cell line; assay: CellTiter-Glo IC50 (Example 19); format: cell-based; conditions: Homo sapiens, PANC-1, 72 h
# Method in brief: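 Luminescent ATP-based viability readout (CellTiter-Glo) after compound exposure of cells plated at 1000 per well. IC50 values derive from dose-response curves of viability relative to untreated controls, fitted by non-linear regression with variable slope.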
# Detroit 562 cell line = assay: Additional in vitro IC50 tests (Table 3); format: cell-based; conditions: Homo sapiens
# Method in brief: (§1)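 Cells at 1000/well, viability by CellTiter-Glo luminescence after compound treatment, as % of untreated control. IC50 from variable-slope log(inhibitor) vs response nonlinear regression.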
# EBC-1 cell line = assay: Additional in vitro IC50 tests (Table 3); format: cell-based; conditions: Homo sapiens
# Method in brief: as §1
# Fadu cell line = assay: Additional in vitro IC50 tests (Table 3); format: cell-based; conditions: Homo sapiens
# Method in brief: as §1
# H2228 cell line = assay: Additional in vitro IC50 tests (Table 3); format: cell-based; conditions: Homo sapiens, NCI-H2228
# Method in brief: as §1
# SCC-25 cell line = assay: Additional in vitro IC50 tests (Table 3); format: cell-based; conditions: Homo sapiens
# Method in brief: as §1
# [3] = tested on: Capan-1 (pancreas, adenocarcinoma) cells; assay: Cell viability assay, CellTiter-Glo (Example 21); format: cell-based, human; conditions: 72 h treatment
# Method in brief: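 Capan-1 cells were seeded at 1000 cells/well in flat-bottomed white 96 well plates (BRANDplates®), with density optimized for cell size and growth rate. Following compound treatment, viability was measured with the CellTiter-Glo® luminescent assay (Promega) per the manufacturer's instructions, reading luminescence on a BioTek Synergy 2 Multi-Mode Reader.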
# [4] = tested on: DU 145 (prostate, carcinoma) cells; assay: Cell viability assay, CellTiter-Glo (Example 21); format: cell-based, human; conditions: 72 h
# Method in brief: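 DU 145 cancer cell viability was assessed with the CellTiter-Glo® luminescent assay (Promega, Madison, WI, USA), following the manufacturer's instructions. Cells were seeded at 1000 cells/well in flat-bottomed white 96 well plates, and after treatment luminescence was read on a BioTek Synergy 2 Multi-Mode Reader.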
# [5] = tested on: Detroit 562 (pharynx, carcinoma) cells; assay: Cell viability assay, CellTiter-Glo (Example 21); format: cell-based, human; conditions: 72 h treatment
# Method in brief: (§2)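 Seeding density per line: Panc-1 750, FaDu 1000, Detroit 562 and MDA-MB-453 1500 cells/well. Viability after treatment read by CellTiter-Glo luminescence; dose-response curves fitted by four-parameter variable-slope non-linear regression.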
# [6] = tested on: EBC-1 (lung, squamous cell carcinoma) cells; assay: Cell viability assay, CellTiter-Glo (Example 21); format: cell-based, human; conditions: 72 h treatment
# Method in brief: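 EBC-1 lung squamous cell carcinoma cells were seeded at 1000 cells/well in flat-bottomed white 96 well plates. After compound treatment, viability was measured with the CellTiter-Glo luminescent assay following the manufacturer's instructions, and luminescence was read on a BioTek Synergy 2 Multi-Mode microplate reader.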
# [7] = tested on: FaDu (pharynx, squamous cell carcinoma) cells; assay: Cell viability assay, CellTiter-Glo (Example 21); format: cell-based, human; conditions: 72 h treatment
# Method in brief: as §2
# [8] = tested on: LNCaP (prostate, carcinoma) cells; assay: Cell viability assay, CellTiter-Glo (Example 21); format: cell-based, human; conditions: 72 h
# Method in brief: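 LNCaP prostate carcinoma cell viability was assessed with the CellTiter-Glo® luminescent assay (Promega), following the manufacturer's instructions. Cells were seeded at 1500 cells/well into flat-bottomed white 96 well plates, treated, and then luminescence was read on a BioTek Synergy 2 Multi-Mode Reader. Dose-response curves were fitted in GraphPad Prism 8.4.2 by four-parameter variable-slope non-linear regression.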
# [9] = tested on: MDA-MB-231 (breast, adenocarcinoma) cells; assay: Cell viability assay, CellTiter-Glo (Example 21); format: cell-based, human; conditions: 72 h treatment
# Method in brief: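 MDA-MB-231 breast adenocarcinoma cells were seeded at 1500 cells/well in flat-bottomed white 96 well plates (BRANDplates®, cat. no.: 781965). Following compound exposure, viability was assessed with the CellTiter-Glo® luminescent assay (Promega) following the manufacturer's protocol, and luminescence was read on a BioTek Synergy 2 Multi-Mode Reader.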
# [10] = tested on: MDA-MB-453 (breast, carcinoma) cells; assay: Cell viability assay, CellTiter-Glo (Example 21); format: cell-based, human; conditions: 72 h treatment
# Method in brief: as §2
# [11] = tested on: MIA PaCa-2 (pancreas, carcinoma) cells; assay: Cell viability assay, CellTiter-Glo (Example 21); format: cell-based, human; conditions: 72 h treatment
# Method in brief: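 MIA PaCa-2 pancreatic carcinoma cells were seeded at 1000 cells/well in flat-bottomed white 96 well plates (BRANDplates®, cat. no.: 781965) and treated with compound. Viability was then determined with the CellTiter-Glo® luminescent cell viability assay (Promega) following the manufacturer's instructions, with luminescence read on a BioTek Synergy 2 Multi-Mode Reader.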
# [12] = tested on: PC-3 (prostate, adenocarcinoma) cells; assay: Cell viability assay, CellTiter-Glo (Example 21); format: cell-based, human; conditions: 72 h treatment
# Method in brief: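 PC-3 prostate adenocarcinoma cells were seeded at 1000 cells/well in flat-bottomed white 96 well plates and treated with compounds. Viability was then determined with the CellTiter-Glo® luminescent assay (Promega) following the manufacturer's instructions, with luminescence read on a BioTek Synergy 2 Multi-Mode Reader.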
# [13] = tested on: Panc-1 (pancreas, carcinoma) cells; assay: Cell viability assay, CellTiter-Glo (Example 21); format: cell-based, human; conditions: 72 h treatment
# Method in brief: as §2
# [14] = tested on: SCC-25 (tongue, squamous cell carcinoma) cells; assay: Cell viability assay, CellTiter-Glo (Example 21); format: cell-based, human; conditions: 72 h treatment
# Method in brief: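 SCC-25 tongue squamous cell carcinoma cells were seeded at 1000 cells/well in flat-bottomed white 96 well plates, treated with compound, and viability was then determined with the CellTiter-Glo luminescent assay (Promega) following the manufacturer's instructions. Luminescence was read on a BioTek Synergy 2 Multi-Mode Reader.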
# Panc-1 human cell line = assay: Cytotoxicity on Panc-1, xCELLigence SP, IC50 after 24 h, 48 h, 72 h and 96 h (Example 22)
compound,measurement,setting,value
"[N-]=[N+]=Nc1cccc(CN2CCC3=C(C2)C(=O)N(Cc2ccc(C(F)(F)F)cc2)C2=NCCN23)c1 [I/111, 7-(3-Azidobenzyl)-4-(4-(trifluoromethyl)benzyl)-2,4,6,7,8,9-hexahydroimidazo[1,2-a]pyrido[3,4-e]pyrimidin-5(1H)-one]",IC50,[1],10 nM
same,IC50,[2],9 nM
same,IC50,Detroit 562 cell line,3 nM
same,IC50,EBC-1 cell line,8 nM
same,IC50,Fadu cell line,11 nM
same,IC50,H2228 cell line,13 nM
same,IC50,SCC-25 cell line,15 nM
same,"Capan-1 (pancreas, adenocarcinoma) cell viability (% of control)",[3]; 3.7 nM,102.5 ± 4.0 % of control
same,"Capan-1 (pancreas, adenocarcinoma) cell viability (% of control)",[3]; 11.1 nM,95.1 ± 8.2 % of control
same,"Capan-1 (pancreas, adenocarcinoma) cell viability (% of control)",[3]; 100 nM,31.7 ± 1.7 % of control
same,"Capan-1 (pancreas, adenocarcinoma) cell viability (% of control)",[3]; 300 nM,30.8 ± 3.3 % of control
same,DU 145 cell viability,[4]; 3.7 nM,93.6 ± 6.9 % of control
same,DU 145 cell viability,[4]; 11.1 nM,33.8 ± 5.0 % of control
same,DU 145 cell viability,[4]; 100 nM,7.1 ± 2.0 % of control
same,DU 145 cell viability,[4]; 300 nM,8.1 ± 1.9 % of control
same,"Detroit 562 (pharynx, carcinoma) cell viability (% of control)",[5]; 3.7 nM,48.0 ± 21.7 % of control
same,"Detroit 562 (pharynx, carcinoma) cell viability (% of control)",[5]; 11.1 nM,32.8 ± 3.7 % of control
same,"Detroit 562 (pharynx, carcinoma) cell viability (% of control)",[5]; 100 nM,26.8 ± 2.8 % of control
same,"Detroit 562 (pharynx, carcinoma) cell viability (% of control)",[5]; 300 nM,28.8 ± 3.8 % of control
same,"EBC-1 (lung, squamous cell carcinoma) cell viability (% of control)",[6]; 3.7 nM,94.1 ± 3.0 % of control
same,"EBC-1 (lung, squamous cell carcinoma) cell viability (% of control)",[6]; 11.1 nM,54.0 ± 6.5 % of control
same,"EBC-1 (lung, squamous cell carcinoma) cell viability (% of control)",[6]; 100 nM,20.6 ± 0.6 % of control
same,"EBC-1 (lung, squamous cell carcinoma) cell viability (% of control)",[6]; 300 nM,20.0 ± 0.0 % of control
same,"FaDu (pharynx, squamous cell carcinoma) cell viability (% of control)",[7]; 3.7 nM,97.7 ± 3.9 % of control
same,"FaDu (pharynx, squamous cell carcinoma) cell viability (% of control)",[7]; 11.1 nM,66.8 ± 12.0 % of control
same,"FaDu (pharynx, squamous cell carcinoma) cell viability (% of control)",[7]; 100 nM,21.7 ± 5.4 % of control
same,"FaDu (pharynx, squamous cell carcinoma) cell viability (% of control)",[7]; 300 nM,22.1 ± 4.8 % of control
same,LNCaP cell viability,[8]; 3.7 nM,97.1 ± 2.6 % of control
same,LNCaP cell viability,[8]; 11.1 nM,32.4 ± 2.3 % of control
same,LNCaP cell viability,[8]; 100 nM,11.8 ± 0.7 % of control
same,LNCaP cell viability,[8]; 300 nM,11.7 ± 0.7 % of control
same,"MDA-MB-231 (breast, adenocarcinoma) cell viability (% of control)",[9]; 3.7 nM,102.7 ± 2.8 % of control
same,"MDA-MB-231 (breast, adenocarcinoma) cell viability (% of control)",[9]; 11.1 nM,98.5 ± 2.1 % of control
same,"MDA-MB-231 (breast, adenocarcinoma) cell viability (% of control)",[9]; 100 nM,56.9 ± 2.2 % of control
same,"MDA-MB-231 (breast, adenocarcinoma) cell viability (% of control)",[9]; 300 nM,52.8 ± 2.7 % of control
same,"MDA-MB-453 (breast, carcinoma) cell viability (% of control)",[10]; 3.7 nM,107.2 ± 5.9 % of control
same,"MDA-MB-453 (breast, carcinoma) cell viability (% of control)",[10]; 11.1 nM,45.7 ± 5.0 % of control
same,"MDA-MB-453 (breast, carcinoma) cell viability (% of control)",[10]; 100 nM,30.3 ± 1.0 % of control
same,"MDA-MB-453 (breast, carcinoma) cell viability (% of control)",[10]; 300 nM,28.8 ± 0.4 % of control
same,"MIA PaCa-2 (pancreas, carcinoma) cell viability (% of control)",[11]; 3.7 nM,100.2 ± 8.8 % of control
same,"MIA PaCa-2 (pancreas, carcinoma) cell viability (% of control)",[11]; 11.1 nM,90.6 ± 19.3 % of control
same,"MIA PaCa-2 (pancreas, carcinoma) cell viability (% of control)",[11]; 100 nM,16.5 ± 6.7 % of control
same,"MIA PaCa-2 (pancreas, carcinoma) cell viability (% of control)",[11]; 300 nM,16.2 ± 6.9 % of control
same,"PC-3 (prostate, adenocarcinoma) cell viability (% of control)",[12]; 3.7 nM,106.8 ± 2.4 % of control
same,"PC-3 (prostate, adenocarcinoma) cell viability (% of control)",[12]; 11.1 nM,75.5 ± 5.9 % of control
same,"PC-3 (prostate, adenocarcinoma) cell viability (% of control)",[12]; 100 nM,32.0 ± 3.2 % of control
same,"PC-3 (prostate, adenocarcinoma) cell viability (% of control)",[12]; 300 nM,31.3 ± 3.0 % of control
same,"Panc-1 (pancreas, carcinoma) cell viability (% of control)",[13]; 3.7 nM,106.1 ± 7.3 % of control
same,"Panc-1 (pancreas, carcinoma) cell viability (% of control)",[13]; 11.1 nM,99.6 ± 1.4 % of control
same,"Panc-1 (pancreas, carcinoma) cell viability (% of control)",[13]; 100 nM,50.1 ± 2.0 % of control
same,"Panc-1 (pancreas, carcinoma) cell viability (% of control)",[13]; 300 nM,49.7 ± 1.2 % of control
same,"SCC-25 (tongue, squamous cell carcinoma) cell viability (% of control)",[14]; 3.7 nM,98.3 ± 4.0 % of control
same,"SCC-25 (tongue, squamous cell carcinoma) cell viability (% of control)",[14]; 11.1 nM,79.0 ± 11.0 % of control
same,"SCC-25 (tongue, squamous cell carcinoma) cell viability (% of control)",[14]; 100 nM,32.5 ± 1.2 % of control
same,"SCC-25 (tongue, squamous cell carcinoma) cell viability (% of control)",[14]; 300 nM,36.4 ± 0.9 % of control
same,IC50,"Panc-1 human cell line; PANC-1, 72 h, read-out: IC50 (72 h) [nM]",20.1 ± 1.68 nM
same,IC50,"Panc-1 human cell line; PANC-1, 96 h, read-out: IC50 (96 h) [nM]",8.58 ± 0.256 nM

# Reference: patent US20230295162A1 (EÖTVÖS LORÁND TUDOMÁNYEGYETEM, priority 2020, published 2023)
